# According to article PMC10895676, “Antiviral Activity of Lipophilic Nucleoside Tetraphosphate Compounds” (Journal of Medicinal Chemistry, 2024):
# Where two headings read alike, the source gives them in different places.
# What was measured:
# HIV-2 (ROD) = experiment: Anti-HIV replication assay, HIV-2 (ROD) in thymidine kinase-deficient CEM/TK– cells; assay type: cell-based; details: for selectivity index (SI): CC50/EC50, HIV-2 (ROD) in CEM/TK– cells; for improvement of antiviral activity as compared to the parent d4T: HIV-2, CEM/TK– cells; for EC50: read-out: CEM/TK– HIV-2 (ROD) EC50
# Outline: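 Wild-type CEM/0 or thymidine kinase-deficient CEM/TK– T-cells (~3 × 10^5 cells/mL) were infected with 100 CCID50/mL HIV-2(ROD) in the presence of compound dilutions. After 4–5 days at 37 °C, virus-induced cytopathicity and syncytium formation were scored microscopically.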
# [1] = Hydrolysis in CEM/0 cell extracts; assay type: in vitro ADME; details: human
# Method: Next, TetraPPPPro-nucleotides 4–9 were incubated in human CD4^+ T-lymphocyte CEM/0 cell extracts to study their stability and identify the hydrolysis products.
# CEM cells were grown in RPMI-1640-based cell culture medium to a final density of ∼3 × 10^6 cells/mL. Cells were centrifuged for 10 min at 1250 rpm at 4 °C and washed twice with cold PBS, and the pellet was resuspended at 10^8 cells/mL and sonicated (Hielscher Ultrasound Techn., 100% amplitude, 3·times for 10 s) to destroy cell integrity. Next, the resulting cell suspension was centrifuged at 10,000 rpm to remove cell debris. Finally, the supernatant was divided into aliquots and frozen at −80 °C.
# 6.0 mM hydrolysis solutions of compounds 4–9 were prepared from 21 μL of 50 mM DMSO stock solutions and 154 μL of DMSO. Two different samples, including 10 μL of water and 10 μL of 6.0 mM hydrolysis solution, were prepared in 2 mL Eppendorf vials. Next, 50 μL of human CEM cell extracts or 50 μL of human citrate plasma were added to the mixture, the reaction was started, and the mixture was incubated at 37 °C for different time periods. The reactions were stopped by the addition of 150 μL of MeOH. The resulting suspension was kept on ice for 5 min, followed by defrosting and centrifugation at 14,000 rpm (Heraeus, Biofuge Pico) for 22 min. The supernatants (80 or 60 μL) were directly injected into HPLC. The calculation of t1/2 was performed analogously to that for the chemical hydrolysis studies.
# [2] = Human immunodeficiency virus 2, CEM/TK– cells, mean ± SD, n = 2–3
# [3] = 37 °C, read-out: CEM/0 cell extracts t1/2 (converted)
SMILES,selectivity index (SI) (HIV-2 (ROD)),improvement of antiviral activity as compared to the parent d4T (HIV-2 (ROD)) [fold],EC50 (HIV-2 (ROD); [2]) [nM],"half-life at 0.86 mM [1, 3] [h]","EC50 (HIV-2 (ROD); Human immunodeficiency virus 2, CEM-TK(-)) [nM]","half-life at 0.86 mM ([1]; dephosphorylation, read-out: t1/2 in CEM/0 cell extracts) [h]"
"CCCCCCCCCCCCCCCCCCOP(=O)(OCCCC)OP(=O)(O)OP(=O)(O)OP(=O)(O)OC[C@@H]1C=C[C@H](n2cc(C)c(=O)[nH]c2=O)O1 (some centres unmarked) [4d, δ-(Alkyl-C4; alkyl-C18)-d4T4P]",260,> 270,180 ± 150,> 20,–,–
"CCCCCCCCCCCCCCCCCCP(=O)(OCCCC)OP(=O)(O)OP(=O)(O)OP(=O)(O)OC[C@@H]1C=C[C@H](n2cc(C)c(=O)[nH]c2=O)O1 (some centres unmarked) [5a, δ-(Alkyl-C4)-δ-C-(alkyl-C18)-d4T4P]",–,> 1100,–,> 20,43 ± 26,–
"CCCCCCCCCCCCCCCCCCOP(=O)(O)OP(=O)(O)OP(=O)(O)OP(=O)(O)OC[C@@H]1C=C[C@H](n2cc(C)c(=O)[nH]c2=O)O1 [compound 20, δ-(Alkyl-C18)-d4T4P]",>21,–,4600 ± 330,> 8,–,–
"CCCCCCCCCCCCCCCCCCP(=O)(O)OP(=O)(O)OP(=O)(O)OP(=O)(O)OC[C@@H]1C=C[C@H](n2cc(C)c(=O)[nH]c2=O)O1 [compound 24, δ-C-(Alkyl-C18)-d4T4P]",30,–,1350 ± 630,> 30,–,–
"Cc1cn([C@H]2C=C[C@@H](COP(=O)(O)OP(=O)(O)OP(=O)(O)OP(=O)(O)O)O2)c(=O)[nH]c1=O [d4T4P, 2′,3′-didehydro-2′,3′-dideoxythymidine-5′-tetraphosphate]",>3,–,33800 ± 21300,0.37,–,0.367
